Measurements reported in patent publication US5380727A, “Synergistic combination for treating herpes infections” (Bio-Mega, Inc., priority 1990, dated 1995).

Tested on: HSV-2 (strain HG-52)
Experiment: Inhibition of HSV-2 replication in BHK-21/C13 cell culture (viral titer by neutral red colorimetric assay)
Type: cell-based
Settings: Human alphaherpesvirus 2, BHK21 (C13); agent alone; HSV-2 strain HG-52 in BHK-21/C13 cells, 29 h incubation; read-out: IC50 (concentration causing 50% inhibition of virus replication)
Protocol: BHK-21/C13 cells (ATCC CCL 10) are incubated for two days in 150 cm^2 T-flasks (1.5×10^6 cells/flask) with alpha-MEM medium (Gibco Canada Inc., Burlington, Ontario, Canada) supplemented with 8% (v/v) fetal bovine serum (FBS, Gibco Canada Inc.). The cells are trypsinized and then transferred to fresh media in a 24 well plate to give 2.5×10^5 cells in 750 μL of media per well. The cells are incubated at 37° C. for a period of 6 hours to allow them to adhere to the plate. Thereafter, the cells are washed once with 500 μL of alpha-MEM supplemented with 0.5% (v/v) FBS and then incubated with 750 μL of the same media (low serum) for 3 days. After this period of serum starvation, the low serum medium is removed and the cells are incubated in 500 μL of BBMT for 2 to 3 hours. [BBMT medium is described by P. Brazeau et al., Proc. Natl. Acad. Sci. USA, 79, 7909 (1982).] Thereafter, the cells are infected with HSV-2 (multiplicity of infection=0.02 PFU/cell) in 100 μL of BBMT medium. […]
On completion of the above 2 hour incubation of the BHK-21/C13 cells, the media is replaced with alpha-MEM medium supplemented with 3% (v/v) FBS. The cells are now ready to be infected with the various sample dilutions of virus. […]

Structure (SMILES): Nc1nc2c(ncn2COCCO)c(=O)[nH]1 [acyclovir, 9-[(2-hydroxyethoxy)methyl]guanine]
- IC50: 4 µM
